Measurements as given in patent US20060058345A1, “Use of papaverine-like vasodilator and pharmaceutical composition” (Ursapharm Arzneimittel GmbH & Co KG, priority 2002, published 2006).
Values joined by “and” are separate entries in the source; they are usually repeats but may differ in a detail not shown here. Equal entries are not always repeated. Structures can show the parent of a compound that is named as a salt.

Columns and labels:
albino rabbits = assay: Compatibility study, topical application to the rabbit eye over 28 days (EU Directive 92/69/EEC, method B.5); type: in vivo; settings: 50 μl aqueous solution pH 3.0-3.5, right eye, twelve albino rabbits
Description: In a compatibility study 50 μl of a moxaverine hydrochloride-bearing aqueous solution with a pH of 3.0-3.5 was applied to the right eye of twelve albino rabbits in each case over a period of 28 days with four applications per working day and two applications per weekend day in a single dose. The left eye served in each case as a control. Evaluation of the eye reaction was effected in accordance with the Table of EU Directive 92/69/EEC, Appendix, method B.5.

[1] = Absorption of 14C-marked moxaverine into eye tissues and plasma after ocular or systemic application; settings: for Amount of active substance in the moist tissue: single experiments
[2] = ocular application, after 30 minutes, Aqueous humor
[3] = ocular application, after 30 minutes, Lens
[4] = ocular application, after 30 minutes, Plasma
[5] = ocular application, after 120 minutes, Retina
[6] = systemic application (intravenous), after 30 minutes, Aqueous humor
[7] = systemic application (intravenous), after 30 minutes, Iris/ciliary process
[8] = systemic application (intravenous), after 30 minutes, Lens
[9] = systemic application (intravenous), after 30 minutes, Plasma
[10] = systemic application (intravenous), after 30 minutes, Retina
[11] = systemic application (intravenous), after 30 minutes, Vitreous humor
[12] = systemic application (intravenous), after 120 minutes, Aqueous humor
[13] = systemic application (intravenous), after 120 minutes, Conjunctiva
[14] = systemic application (intravenous), after 120 minutes, Iris/ciliary process
[15] = systemic application (intravenous), after 120 minutes, Lens
[16] = systemic application (intravenous), after 120 minutes, Plasma
[17] = systemic application (intravenous), after 120 minutes, Retina
[18] = systemic application (intravenous), after 120 minutes, Sclera
[19] = systemic application (intravenous), after 120 minutes, Vitreous humor

Question: What does the source list for `CCc1cc2cc(OC)c(OC)cc2c(Cc2ccccc2)n1` [moxaverine hydrochloride]?
Answer: Eye reaction: changes to the iris, clouding of the cornea (albino rabbits): No changes to the iris or clouding of the cornea were observed; Eye reaction: swelling of the lids, reddening of the conjunctiva (albino rabbits): No rabbit exhibited swelling of the lids or any reddening of the conjunctiva

Question: For `CCc1cc2cc(OC)c(OC)cc2c(Cc2ccccc2)n1` [moxaverine], which “Factor by which concentration in the iris and the ciliary process is less with systemic than with topical application” value ([1]; 30 minutes) is on record?
Answer: ~6

Question: What about the “Factor by which concentration in the iris and the ciliary process is less with systemic than with topical application” value ([1]; 120 minutes) of the same molecule?
Answer: ~18

Question: What about the “Concentration in the retina, systemic compared to topical administration” value ([1]; after 30 minutes) of the same molecule?
Answer: slightly above

Question: What about the “Concentration in the conjunctiva and the cornea after 120 minutes compared to 30 minutes” value ([1]; ocular application) of the same molecule?
Answer: decreased

Question: What about the “Concentration in the iris and the ciliary process after 120 minutes compared to 30 minutes” value ([1]; ocular application) of the same molecule?
Answer: almost doubled

Question: What about the “Increase of concentration in the retina after 120 minutes compared to 30 minutes” value ([1]; ocular application) of the same molecule?
Answer: about 50%

Question: What about the “Amount of active substance in the moist tissue, Mean value” (shortened to “Amount of active substance … Mean value”) [1, 2] of the same molecule?
Answer: 1.9529E−07 mg of moxaverine/g of moist tissue

Question: What about the “Amount of active substance in the moist tissue” value [1, 2] of the same molecule?
Answer: 1.4923E−07 mg of moxaverine/g of moist tissue and 2.6321E−07 mg of moxaverine/g of moist tissue and 1.7533E−07 mg of moxaverine/g of moist tissue

Question: What about the “Amount of active substance … Mean value” ([1]; ocular application, after 30 minutes, Conjunctiva) of the same molecule?
Answer: 6.1602E−04 mg of moxaverine/g of moist tissue

Question: And the “Amount of active substance … Mean value” ([1]; ocular application, after 30 minutes, Cornea)?
Answer: 1.8538E−03 mg of moxaverine/g of moist tissue

Question: What about the “Amount of active substance … Mean value” ([1]; ocular application, after 30 minutes, Iris/ciliary process) of the same molecule?
Answer: 1.5028E−03 mg of moxaverine/g of moist tissue

Question: What about the “Amount of active substance … Mean value” [1, 3] of the same molecule?
Answer: 4.9582E−05 mg of moxaverine/g of moist tissue

Question: What about the “Amount of active substance in the moist tissue” value [1, 3] of the same molecule?
Answer: 4.6171E−05 mg of moxaverine/g of moist tissue and 6.1860E−05 mg of moxaverine/g of moist tissue and 4.0715E−05 mg of moxaverine/g of moist tissue

Question: What about the “Amount of active substance … Mean value” [1, 4] of the same molecule?
Answer: 2.0234E−05 mg of moxaverine/g of moist tissue

Question: What about the “Amount of active substance in the moist tissue” value [1, 4] of the same molecule?
Answer: 2.3741E−05 mg of moxaverine/g of moist tissue and 1.8259E−05 mg of moxaverine/g of moist tissue and 1.8702E−05 mg of moxaverine/g of moist tissue

Question: And the “Amount of active substance … Mean value” ([1]; ocular application, after 30 minutes, Retina)?
Answer: 1.0031E−04 mg of moxaverine/g of moist tissue

Question: What about the “Amount of active substance … Mean value” ([1]; ocular application, after 30 minutes, Sclera) of the same molecule?
Answer: 1.0012E−04 mg of moxaverine/g of moist tissue

Question: What about the “Amount of active substance … Mean value” ([1]; ocular application, after 30 minutes, Vitreous humor) of the same molecule?
Answer: 1.1544E−07 mg of moxaverine/g of moist tissue

Question: What about the “Amount of active substance … Mean value” ([1]; ocular application, after 120 minutes, Aqueous humor) of the same molecule?
Answer: 9.3417E−08 mg of moxaverine/g of moist tissue

Question: And the “Amount of active substance … Mean value” ([1]; ocular application, after 120 minutes, Conjunctiva)?
Answer: 3.7275E−04 mg of moxaverine/g of moist tissue

Question: And the “Amount of active substance … Mean value” ([1]; ocular application, after 120 minutes, Cornea)?
Answer: 1.1057E−03 mg of moxaverine/g of moist tissue

Question: What about the “Amount of active substance … Mean value” ([1]; ocular application, after 120 minutes, Iris/ciliary process) of the same molecule?
Answer: 2.9849E−03 mg of moxaverine/g of moist tissue

Question: And the “Amount of active substance … Mean value” ([1]; ocular application, after 120 minutes, Lens)?
Answer: 5.6780E−05 mg of moxaverine/g of moist tissue

Question: And the “Amount of active substance … Mean value” ([1]; ocular application, after 120 minutes, Plasma)?
Answer: 1.2891E−05 mg of moxaverine/g of moist tissue

Question: And the “Amount of active substance … Mean value” [1, 5]?
Answer: 1.4397E−04 mg of moxaverine/g of moist tissue

Question: What about the “Amount of active substance in the moist tissue” value [1, 5] of the same molecule?
Answer: 1.8933E−04 mg of moxaverine/g of moist tissue and 1.4755E−04 mg of moxaverine/g of moist tissue and 9.5039E−05 mg of moxaverine/g of moist tissue

Question: And the “Amount of active substance … Mean value” ([1]; ocular application, after 120 minutes, Sclera)?
Answer: 1.0330E−04 mg of moxaverine/g of moist tissue

Question: And the “Amount of active substance … Mean value” ([1]; ocular application, after 120 minutes, Vitreous humor)?
Answer: 9.6118E−09 mg of moxaverine/g of moist tissue

Question: What about the “Absorption and biological availability in the eye, topical compared to systemic application” value ([1]; same application amount) of the same molecule?
Answer: better absorbed by the eye with topical application and exhibits a markedly longer biological availability in the eye

Question: What about the “Concentration in the iris and the ciliary process at 120 minutes as share of the concentration after 30 minutes” value ([1]; systemic application) of the same molecule?
Answer: about 63%

Question: What about the “Factor of decrease of concentration in the retina from 30 to 120 minutes” value ([1]; systemic application) of the same molecule?
Answer: 1.6

Question: And the “Amount of active substance … Mean value” [1, 6]?
Answer: 2.2632E−09 mg of moxaverine/g of moist tissue

Question: And the “Amount of active substance in the moist tissue” value [1, 6]?
Answer: 2.0291E−09 mg of moxaverine/g of moist tissue and 2.4973E−09 mg of moxaverine/g of moist tissue

Question: What about the “Amount of active substance … Mean value” ([1]; systemic application (intravenous), after 30 minutes, Conjunctiva) of the same molecule?
Answer: 2.4278E−05 mg of moxaverine/g of moist tissue

Question: And the “Amount of active substance … Mean value” ([1]; systemic application (intravenous), after 30 minutes, Cornea)?
Answer: 8.1549E−06 mg of moxaverine/g of moist tissue

Question: And the “Amount of active substance … Mean value” [1, 7]?
Answer: 2.5186E−04 mg of moxaverine/g of moist tissue

Question: What about the “Amount of active substance in the moist tissue” value [1, 7] of the same molecule?
Answer: 2.2898E−04 mg of moxaverine/g of moist tissue and 2.7473E−04 mg of moxaverine/g of moist tissue

Question: And the “Amount of active substance … Mean value” [1, 8]?
Answer: 1.2813E−06 mg of moxaverine/g of moist tissue

Question: What about the “Amount of active substance in the moist tissue” value [1, 8] of the same molecule?
Answer: 9.5659E−07 mg of moxaverine/g of moist tissue and 1.6061E−06 mg of moxaverine/g of moist tissue

Question: And the “Amount of active substance … Mean value” [1, 9]?
Answer: 3.4421E−05 mg of moxaverine/g of moist tissue

Question: What about the “Amount of active substance in the moist tissue” value [1, 9] of the same molecule?
Answer: 2.8375E−05 mg of moxaverine/g of moist tissue and 4.9032E−05 mg of moxaverine/g of moist tissue and 2.5855E−05 mg of moxaverine/g of moist tissue

Question: And the “Amount of active substance … Mean value” [1, 10]?
Answer: 1.3046E−04 mg of moxaverine/g of moist tissue

Question: And the “Amount of active substance in the moist tissue” value [1, 10]?
Answer: 1.0666E−04 mg of moxaverine/g of moist tissue and 1.5425E−04 mg of moxaverine/g of moist tissue

Question: And the “Amount of active substance … Mean value” ([1]; systemic application (intravenous), after 30 minutes, Sclera)?
Answer: 3.3698E−05 mg of moxaverine/g of moist tissue

Question: And the “Amount of active substance … Mean value” [1, 11]?
Answer: 2.0811E−09 mg of moxaverine/g of moist tissue

Question: What about the “Amount of active substance in the moist tissue” value [1, 11] of the same molecule?
Answer: 2.6534E−09 mg of moxaverine/g of moist tissue and 1.5088E−09 mg of moxaverine/g of moist tissue

Question: What about the “Amount of active substance … Mean value” [1, 12] of the same molecule?
Answer: 1.9944E−09 mg of moxaverine/g of moist tissue

Question: What about the “Amount of active substance in the moist tissue” value [1, 12] of the same molecule?
Answer: 2.3412E−09 mg of moxaverine/g of moist tissue and 1.8210E−09 mg of moxaverine/g of moist tissue

Question: And the “Amount of active substance … Mean value” [1, 13]?
Answer: 2.2936E−05 mg of moxaverine/g of moist tissue

Question: And the “Amount of active substance in the moist tissue” value [1, 13]?
Answer: 2.7539E−05 mg of moxaverine/g of moist tissue and 1.5261E−05 mg of moxaverine/g of moist tissue and 2.6009E−05 mg of moxaverine/g of moist tissue

Question: What about the “Amount of active substance … Mean value” ([1]; systemic application (intravenous), after 120 minutes, Cornea) of the same molecule?
Answer: 7.6083E−06 mg of moxaverine/g of moist tissue

Question: And the “Amount of active substance … Mean value” [1, 14]?
Answer: 1.5907E−04 mg of moxaverine/g of moist tissue

Question: And the “Amount of active substance in the moist tissue” value [1, 14]?
Answer: 1.2211E−04 mg of moxaverine/g of moist tissue and 1.6708E−04 mg of moxaverine/g of moist tissue and 1.8802E−04 mg of moxaverine/g of moist tissue

Question: And the “Amount of active substance … Mean value” [1, 15]?
Answer: 1.5477E−06 mg of moxaverine/g of moist tissue

Question: And the “Amount of active substance in the moist tissue” value [1, 15]?
Answer: 1.3706E−06 mg of moxaverine/g of moist tissue and 2.0870E−06 mg of moxaverine/g of moist tissue and 1.1854E−06 mg of moxaverine/g of moist tissue

Question: What about the “Amount of active substance … Mean value” [1, 16] of the same molecule?
Answer: 2.2620E−05 mg of moxaverine/g of moist tissue

Question: What about the “Amount of active substance in the moist tissue” value [1, 16] of the same molecule?
Answer: 2.4420E−05 mg of moxaverine/g of moist tissue and 2.1190E−05 mg of moxaverine/g of moist tissue and 2.2250E−05 mg of moxaverine/g of moist tissue

Question: What about the “Amount of active substance … Mean value” [1, 17] of the same molecule?
Answer: 7.7330E−05 mg of moxaverine/g of moist tissue

Question: What about the “Amount of active substance in the moist tissue” value [1, 17] of the same molecule?
Answer: 9.5067E−05 mg of moxaverine/g of moist tissue and 8.3068E−05 mg of moxaverine/g of moist tissue and 5.3855E−05 mg of moxaverine/g of moist tissue

Question: And the “Amount of active substance … Mean value” [1, 18]?
Answer: 1.3993E−05 mg of moxaverine/g of moist tissue

Question: And the “Amount of active substance in the moist tissue” value [1, 18]?
Answer: 1.4230E−05 mg of moxaverine/g of moist tissue and 1.1476E−05 mg of moxaverine/g of moist tissue and 1.6272E−05 mg of moxaverine/g of moist tissue

Question: And the “Amount of active substance … Mean value” [1, 19]?
Answer: 1.2851E−09 mg of moxaverine/g of moist tissue

Question: And the “Amount of active substance in the moist tissue” value [1, 19]?
Answer: 1.5608E−09 mg of moxaverine/g of moist tissue and 9.6772E−10 mg of moxaverine/g of moist tissue and 1.3267E−09 mg of moxaverine/g of moist tissue

Question: And the “Absorption by the eye after topical application to the surface” value ([1]; topical application)?
Answer: very well absorbed by the eye

Question: What about the “Factor of increase of concentration in the iris and the ciliary process from 30 minutes to 120 minutes” value ([1]; topical application) of the same molecule?
Answer: ~2

Question: And the “Factor of increase of concentration in the retina from 30 to 120 minutes” value ([1]; topical application)?
Answer: 1.4
